According to publication PMC3558502, “Acaricide, Fungicide and Drug Interactions in Honey Bees (Apis mellifera)” (PLoS ONE, 2013):
“Also recorded” adds a separate entry of the source. Structures can show the parent of a compound that is named as a salt. Where two headings read alike, the source gives them in different places.

Tests used:
[1] = system: honey bees (Apis mellifera); experiment: Lethal dose bioassay: topical sublethal pre-treatment (acaricide, fungicide or enzyme inhibitor), then topical acaricide dose series, 2009; settings: for interactive effect between pre-treatment and acaricide toxicity (in words): 2009 topical pre-treatments, partner named in the value; for LD10: from fitted dose-response lines, control pre-treatment, 2009 (Table S1)
Experimental: Bees were first treated with a sublethal dose of either an acaricide, a fungicide, an antimicrobial drug, or an enzyme inhibitor. Bees were then treated with a range of lethal doses of an acaricide to estimate the dose-response curve. […] We tested 25 of the 6×6 possible acaricide-acaricide combinations, 24 of the 6×5 fungicide-acaricide combinations, 15 of the 6×3 antimicrobial-acaricide combinations and 9 of the 6×3 enzyme inhibitor-acaricide combinations. […] The fungicides propiconazole, fenbuconazole, metconazole and myclobutanil were tested in combination with a single acaricide, tau-fluvalinate.
(§1) Frames of late-stage brood were collected from these colonies and placed in a dark, humid incubator (Darwin Chambers Co., St. Louis, MO, model H024) at 34°C. Newly emerged adults were brushed from frames daily into screened wooden cages (21×14×12 cm) and weighed as a group to estimate the number of bees. Each cohort of 200–800 bees was provisioned with 1∶1 (w/w) granulated sugar dissolved in water and held for 3–4 days in the incubator.
Each treatment series was conducted using 3–4 day-old adult worker bees divided into 8–13 subgroups of 20 bees each. Bees were narcotized with carbon dioxide and each subgroup was placed in a separate wax-coated paper cup (177 cm^3; Solo S306, Highland Park, IL) covered with cotton cheesecloth and secured with two rubber bands. A maximum sublethal pre-treatment of an acaricide, fungicide, enzyme inhibitor, or solvent control, was then applied to bees in all subgroups. […] Sublethal doses used as pre-treatment for acaricides were determined in preliminary bioassays or previous studies and corresponded to doses less than or near the LD10 values determined in the current experiment. […] All doses were delivered topically in 1 µl of acetone and applied to the thoracic notum using a 50 µl syringe fitted in a repeating dispenser (Hamilton PB-600, Reno, NV). A control pre-treatment consisting of 1 µl of pure acetone was also included.
(§2) Groups of pre-treated bees were allowed to recover for 1 h to minimize mortality due to extended carbon dioxide anaesthetization. Each subgroup of approximately 20 bees, of the 8–13 dose-groups in the bioassay, was then anaesthetized again and treated topically with either an acetone solvent control or one of a range of 7–12 acaricide doses, including doses eliciting 0% and 100% mortality, and at least three doses causing intermediate mortality. After treatment sucrose water was provided to groups of treated bees through a punctured 1.5 ml microcentrifuge tube following dosing, and bees were returned to the 34°C incubator. […] Immobile bees were scored as dead. […] At least three replicate treatment series were performed for each combination of pre-treatment and acaricide. Separately diluted acaricide dose series and bees taken from different colonies were used for each replicate treatment.
(§3) Lines were fitted to dose-mortality data on a log-probit scale for each pretreatment-acaricide combination using ‘glm’ in the R statistical package. […] Interactive effects between acaricides and the various pre-treatments were determined with pairwise tests comparing the dose-response lines for bees receiving pre-treatments with bees receiving a control pre-treatment using a test analogous to ANCOVA [26]. The full model, which includes the dose of acaricide as a covariate, pre-treatment as a categorical factor and the interaction between acaricide dose and pre-treatment, was compared with two simplified models (Figure 3). A process of model simplification was undertaken in which the explanatory power of model terms was assessed by reference to the likelihood ratio [38]. The first simplified model lacks the interaction term and tests the interaction between pre-treatment and acaricide dose, essentially testing for differences in the slope of the two dose-response lines (also known as a test of the “hypothesis of parallelism” [26]).

[2] = system: honey bees (Apis mellifera); experiment: Lethal dose bioassay: antimicrobial drugs fed in sucrose syrup, then topical acaricide dose series, 2010; settings: for interactive effect between antimicrobial pre-treatment and acaricide toxicity (in words): 2010 oral pre-treatments, partner named in the value
Experimental: as §1, §2, §3

[3] = system: honey bees (Apis mellifera); experiment: Lethal dose bioassay: tau-fluvalinate after PBO or SBI fungicide pre-treatment at 0.1, 1 or 10 nmol per bee, 2010; format: in vivo
Excerpt: Acetone was also applied as a pre-treatment control.
Immobile bees were scored as dead.

[4] = system: honey bees (Apis mellifera); settings: study conducted in 2008 using an identical protocol; cited from earlier work
honey bees = experiment: Estimated daily exposure and margin of safety of acaricide formulations; design: species or system Apis mellifera; settings: LD10 divided by estimated daily dose
Excerpt: High sublethal doses were deliberately chosen as pre-treatments to make the magnitude of any interactive effect between the pre-treatment and acaricide as large as possible. However, to determine the hazard posed by acaricide interactions in bee hives, the actual exposure bees receive when treated with formulated acaricides must be considered. […] The LD10 can be determined from the fitted dose response lines (Table S1). The daily dose can be estimated by first determining the amount of active ingredient present in each acaricide formulation, correcting this value by the amount of active ingredient available for uptake by the bees (e.g. 10% of the total acaricide content in strip formulations is taken up by bees, [50]) and dividing this quantity by the number of days the acaricide formulation is present in the hive. The estimated daily dose calculated in this way can be validated using published pesticide residue data, [51].

Apis mellifera = settings: cited from earlier work
[5] = tau-fluvalinate topical dose series after acetone control pre-treatment

O=C(Nc1ccccc1-c1ccc(Cl)cc1)c1cccnc1Cl [boscalid]
interactive effect between pre-treatment and acaricide toxicity (in words) [1]: did not interact with any acaricide tested

CC(C)[C@@H](Nc1ccc(C(F)(F)F)cc1Cl)C(=O)OC(C#N)c1cccc(Oc2ccccc2)c1 (stereo partly shown) [tau-fluvalinate]
LD50 of the acaricide ([1]; 2009, topical, adult workers, pre-treatment: control, 1 µl acetone): 19.8 µg per bee | increase in toxicity of tau-fluvalinate ([1]; 2009 experiments, prochloraz pre-treatment): ~2000 fold | interactive effect between pre-treatment and acaricide toxicity (in words) [1]: tau-fluvalinate toxicity was transitively increased when thymol was applied as a pre-treatment; also recorded: chlorothalonil increased the toxicity of both thymol and tau-fluvalinate; also recorded: Pyraclostrobin and boscalid applied together in a blend like Pristine moderately increased the toxicity of tau-fluvalinate | increase in toxicity of tau-fluvalinate ([1]; amitraz pre-treatment): 5 fold | increase in toxicity of tau-fluvalinate ([1]; fenpyroximate pre-treatment): 8 fold | LD10 [1]: 3.08 µg/bee | LD50 of the acaricide ([2]; 2010, topical acaricide, bees fed control 1:1 sucrose syrup): 9.2 µg per bee | interactive effect between antimicrobial pre-treatment and acaricide toxicity (in words) [2]: pretreating bees with oxytetracycline had no significant effect on the LD50 of tau-fluvalinate | interactive effect between SBI fungicide pre-treatment and tau-fluvalinate toxicity (in words) ([3]; 2010, SBI fungicides): an antagonistic interaction was observed at the lowest fungicide doses (0.1 nmol or approximately 0.03 µg per bee) | LD50 for tau-fluvalinate ([3]; 2010, topical, pre-treatment: control (acetone)): 9.0 µg per bee | interaction between tau-fluvalinate and PBO ([3]; PBO 10 nmol dose level): 5.8 fold | increase in toxicity of tau-fluvalinate ([3]; pre-treated with any of the 5 fungicides or PBO at the 1 nmol dose): 1.4 to 2.3 fold | increase in toxicity of tau-fluvalinate ([3]; pre-treated with any of the 5 fungicides or PBO at the 10 nmol dose): 12 to 74 fold | dose-response line intercept ± SE [3, 5]: -2.72 ± 0.24 | dose-response line slope ± SE [3, 5]: 2.85 ± 0.26 | LD50 for tau-fluvalinate [4]: 6.75 µg per bee

Cc1ccc(/N=C/N(C)/C=N/c2ccc(C)cc2C)c(C)c1 [amitraz]
interactive effect between pre-treatment and acaricide toxicity (in words) [1]: toxicity of amitraz was unchanged when bees were pre-treated with tau-fluvalinate; also recorded: oxalic acid pre-treatment reduced the toxicity of amitraz nearly four-fold | LD10 [1]: 0.92 µg/bee | interactive effect between antimicrobial pre-treatment and acaricide toxicity (in words) [2]: this combination had no effect on acute mortality | margin of safety of acaricide formulations (honey bees): 2.0 to 7.8 fold

CC[C@H]1OC(=O)C[C@@H](O)[C@H](C)[C@@H](O[C@@H]2O[C@H](C)[C@@H](O[C@H]3C[C@@](C)(O)[C@@H](O)[C@H](C)O3)[C@H](N(C)C)[C@H]2O)[C@@H](CC=O)C[C@@H](C)C(=O)/C=C/C(C)=C/[C@@H]1CO[C@@H]1O[C@H](C)[C@@H](O)[C@@H](OC)[C@H]1OC [tylosin]
interactive effect between antimicrobial pre-treatment and acaricide toxicity (in words) [2]: did not interact with any acaricide tested

O=C(O)C(=O)O [oxalic acid]
LD10 (Apis mellifera): 176.7c µg/bee

CCOC(=O)/C=C\C(=O)OCC [DEM, diethyl maleate]
interactive effect between pre-treatment and acaricide toxicity (in words) [1]: did not interact with any acaricide tested

Cc1ccc(C(C)C)c(O)c1 [thymol]
margin of safety of acaricide formulations (honey bees): 2.0 to 7.8 fold
